As usually defined, the IC50 is the point on the concentration scale where inhibition reaches its midpoint. The inhibition is the relative decrease from the control value, in per cent.

The record followed here is patent publication US8691855B2, “Compounds, isomer thereof, or pharmaceutically acceptable salts thereof as vanilloid receptor antagonist and pharmaceutical compositions containing the same” (Amorepacific Corporation, priority 2008, dated 2014).

Structures are written as SMILES. Bounds are passed on as bounds.

For one assay, the target named is T1, vanilloid receptor (Rattus norvegicus, UniProt O35433).
T1 construct: DRG nerve cells from the primary culture of 2 days were equilibrated; endogenous in cells; host or cells: primary culture of dorsal root ganglion neurons from neonatal SD rats
Briefly: 45Ca influx test (antagonist calcium uptake test) in rat DRG neurons stimulated with capsaicin. The class given is cell-based. To be noted: neonatal SD rat DRG neurons, capsaicin 0.5 μM; for IC50: 45Ca. The method in brief: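 Neonatal SD rat DRG neurons, cultured 2 days with NGF 200 ng/ml, exposed to test compound plus 0.5 μM capsaicin and 45Ca (10 μCi/ml) in HEPES-buffered Ca/Mg-free HBSS, pH 7.4, 10 min at room temperature. Influx counted by scintillation; activity as percent inhibition of the 0.5 μM capsaicin maximal response.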

A further assay relates to Male ICR mice. Description: Analgesic activity test: mouse writhing test by inducing with phenyl-p-quinone. In kind it is in vivo. The following applies: po, dose 3 mg/kg, p.o., read-out: Analgesic effect (% Inhibition). The procedure: 2. Analgesic Activity Test: Mouse Writhing Test by Inducing with Phenyl-p-quinone Male ICR mice (mean body weight 25 g) were maintained in a controlled lighting environment (12 h on/12 h off) for experiment. Animals received an intraperitoneal injection of 0.3 ml of the chemical irritant phenyl-p-quinone (dissolved in saline containing 5% ethanol to be a close of 4.5 mg/kg) and 6 mins later, the number of abdominal constrictions was counted in the subsequent 6 mins period. Animals (10 animals/group) received 0.2 ml of test compounds solution in vehicle of ethanol/Tween 80/saline (Oct. 10, 1980) intraperitoneally 30 min before the injection of phenyl-p-quinone. In the case of oral administration, 0.2 ml of test compounds solution in vehicle of ethanol/Tween 80/saline (5/5/90) were administered 54 min prior to the 0.2 ml of 0.02% phenyl-p-quinone injection. A reduction in the number of writhes responding to the test drug compound relative to the number responding in saline control group was considered to be indicative of an analgesic effect. Analgesic effect was calculated by % inhibition equation (% inhibition=(C-T)/C×100), wherein C and T represent the number of writhes in control and compound-treated group, respectively.

T1 sequence (O35433 whole entry): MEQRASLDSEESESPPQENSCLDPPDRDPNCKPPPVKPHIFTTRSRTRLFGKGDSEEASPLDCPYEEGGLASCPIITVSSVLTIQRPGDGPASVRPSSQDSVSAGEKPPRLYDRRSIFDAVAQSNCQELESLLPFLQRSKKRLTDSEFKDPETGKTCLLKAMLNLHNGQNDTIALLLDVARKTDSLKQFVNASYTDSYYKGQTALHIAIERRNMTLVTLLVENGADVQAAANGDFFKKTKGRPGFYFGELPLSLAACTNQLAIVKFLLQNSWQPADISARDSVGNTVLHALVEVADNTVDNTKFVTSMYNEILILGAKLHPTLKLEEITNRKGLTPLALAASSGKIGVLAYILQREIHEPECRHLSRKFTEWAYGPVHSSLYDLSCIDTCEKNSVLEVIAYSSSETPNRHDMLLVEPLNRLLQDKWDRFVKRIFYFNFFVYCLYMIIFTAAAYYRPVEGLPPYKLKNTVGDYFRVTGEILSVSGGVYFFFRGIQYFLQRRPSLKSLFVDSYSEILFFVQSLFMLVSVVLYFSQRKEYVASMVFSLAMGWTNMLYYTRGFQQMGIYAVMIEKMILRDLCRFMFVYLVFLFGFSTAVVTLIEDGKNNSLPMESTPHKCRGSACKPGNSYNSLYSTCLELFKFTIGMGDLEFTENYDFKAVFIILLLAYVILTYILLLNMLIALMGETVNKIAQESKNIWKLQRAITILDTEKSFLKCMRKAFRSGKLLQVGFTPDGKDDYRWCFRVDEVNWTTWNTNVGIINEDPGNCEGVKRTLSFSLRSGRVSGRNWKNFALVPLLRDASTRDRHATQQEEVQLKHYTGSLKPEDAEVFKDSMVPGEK

For the compound `CS(=O)(=O)Nc1ccc(CNC(=O)c2ccc(-c3ccccc3C(F)(F)F)o2)cc1F` [Example 117, 5-(2-Trifluoromethyl-phenyl)-furan-2-carboxylic acid 3-fluoro-4-methanesulfonylamino-benzylamide], the IC50 on vanilloid receptor is 680 nM. The inhibition in vivo at 3 mg/kg in the assay with Male ICR mice came to 39%. For `CS(=O)(=O)Nc1ccc(CNC(=O)c2ccc(-c3cccc(C(F)(F)F)c3)o2)cc1F` [Example 118, 5-(3-Trifluoromethyl-phenyl)-furan-2-carboxylic acid 3-fluoro-4-methanesulfonylamino-benzylamide] the same measures were 370 nM and 42%. For `C[C@@H](NC(=O)c1ccc(-c2ccccc2C(F)(F)F)o1)c1cc(F)c(NS(C)(=O)=O)c(F)c1` [Example 119, 5-(2-Trifluoromethyl-phenyl)-furan-2-carboxylic acid [1-(3,5-difluoro-4-methanesulfonylamino-phenyl)-ethyl]-amide] the same measures were 130 nM and 38%. For `CC(C)c1cccc(-c2nc(C(=O)N[C@H](C)c3cc(F)c(NS(C)(=O)=O)c(F)c3)cs2)c1` [Example 80, 2-(3-Isopropyl-phenyl)-thiazole-4-carboxylic acid [1-(3,5-difluoro-4-methanesulfonylamino-phenyl)-ethyl]-amide], the IC50 on vanilloid receptor came out at 30 nM. Also, in the assay on Male ICR mice, the inhibition in vivo at 3 mg/kg worked out at 22%. Consider `C[C@@H](NC(=O)c1ccc(-c2cccc(C(F)(F)F)c2)o1)c1cc(F)c(NS(C)(=O)=O)c(F)c1` [Example 120, (R)-5-(3-Trifluoromethyl-phenyl)-furan-2-carboxylic acid [1-(3,5-difluoro-4-methanesulfonylamino-phenyl)-ethyl]-amide], for which, on vanilloid receptor, the half-inhibitory concentration (IC50) turned out to be 64 nM. In the assay with Male ICR mice, the inhibition in vivo at 3 mg/kg came to 60%. For `C[C@@H](NC(=O)c1coc(-c2ccc(Cl)c(C(F)(F)F)c2)n1)c1cc(F)c(NS(C)(=O)=O)c(F)c1` [Example 91, 2-(4-Chloro-3-trifluoromethyl-phenyl)-oxazole-4-carboxylic acid [1-(3,5-difluoro-4-methanesulfonylamino-phenyl)-ethyl]-amide] the same measures were 210 nM and 25%.

With `C[C@@H](NC(=O)c1coc(Oc2cccc(Cl)c2)n1)c1cc(F)c(NS(C)(=O)=O)c(F)c1` [Example 16, 2-(3-Chloro-phenoxy)-oxazole-4-carboxylic acid [1-(3,5-difluoro-4-methanesulfonylamino-phenyl)-ethyl]-amide], the IC50 at vanilloid receptor worked out at 770 nM. Turning to `C=C1CCc2c(Oc3nc(C(=O)N[C@H](C)c4cc(F)c(NS(C)(=O)=O)c(F)c4)co3)cccc21` [Example 28, 2-(1-Methylene-indan-4-yloxy)-oxazole-4-carboxylic acid [1-(3,5-difluoro-4-methanesulfonylamino-phenyl)-ethyl]-amide], the IC50 on vanilloid receptor turned out to be 820 nM.

For `C[C@@H](NC(=O)c1ccc(-c2cc(C3CC3)cc(C3CC3)c2)o1)c1cc(F)c(NS(C)(=O)=O)c(F)c1` [Example 108, 5-(3,5-Dicyclopropyl-phenyl)-furan-2-carboxylic acid [1-(3,5-difluoro-4-methanesulfonylamino-phenyl)-ethyl]-amide], the IC50 on vanilloid receptor amounted to 520 nM.

`C=C1CCCc2c(Oc3nc(C(=O)N[C@H](C)c4cc(F)c(NS(C)(=O)=O)c(F)c4)co3)cccc21` [Example 37, 2-(5-Methylene-5,6,7,8-tetrahydro-naphthalen-1-yloxy)-oxazole-4-carboxylic acid [1-(3,5-difluoro-4-methanesulfonylamino-phenyl)-ethyl]-amide]: the IC50 on vanilloid receptor was 410 nM.

As for `CS(=O)(=O)Nc1c(F)cc(CNC(=O)c2csc(Cc3ccc(F)c(F)c3)n2)cc1F` [Example 12, N-[1-(3,5-Difluoro-4-methanesulfonylamino)-benzyl]-2-(3,4-difluorobenzyl)-thiazole-4-amide], at vanilloid receptor, the IC50 is > 10000 nM. For `C[C@@H](NC(=O)c1coc(Oc2cccc(Cl)n2)n1)c1cc(F)c(NS(C)(=O)=O)c(F)c1` [Example 26], the 50% inhibitory concentration (IC50) on vanilloid receptor was > 10000 nM. Same read-out and setting: with `C[C@@H](NC(=O)c1coc(Oc2cc(C(F)(F)F)cc(C(F)(F)F)c2)n1)c1cc(F)c(NS(C)(=O)=O)c(F)c1` [Example 36, 2-(3,5-Bis-trifluoromethyl-phenoxy)-oxazole-4-carboxylic acid [1-(3,5-difluoro-4-methanesulfonylamino-phenyl)-ethyl]-amide] the figure was 1300 nM; with `C[C@@H](NC(=O)c1coc(Oc2cccc(C3CCC3)c2)n1)c1cc(F)c(NS(C)(=O)=O)c(F)c1` [Example 56, 2-(3-Cyclobutyl-phenoxy)-oxazole-4-carboxylic acid [1-(3,5-difluoro-4-methanesulfonylamino-phenyl)-ethyl]-amide], 560 nM. For `CC(C)c1cccc(Oc2nc(C(=O)NCc3cc(F)c(NS(C)(=O)=O)c(F)c3)co2)c1` [Example 9, 2-(3-Isopropyl-phenoxy)-oxazole-4-carboxylic acid 3,5-difluoro-4-methanesulfonylamino-benzylamide], the IC50 at vanilloid receptor is 440 nM. As for `Cc1ccc(C(C)C)cc1Oc1nc(C(=O)N[C@H](C)c2cc(F)c(NS(C)(=O)=O)c(F)c2)co1` [Example 47, 2-(5-Isopropyl-2-methyl-phenoxy)-oxazole-4-carboxylic acid [1-(3,5-difluoro-4-methanesulfonylamino-phenyl)-ethyl]-amide], on vanilloid receptor, the IC50 came out at 620 nM.

`CC(C)c1ccc(I)c(Oc2nc(C(=O)N[C@H](C)c3cc(F)c(NS(C)(=O)=O)c(F)c3)co2)c1` [Example 52, 2-(2-Iodo-5-isopropyl-phenoxy)-oxazole-4-carboxylic acid [1-(3,5-difluoro-4-methanesulfonylamino-phenyl)-ethyl]-amide]: at vanilloid receptor, the IC50 is 1800 nM.

In the case of `COc1cccc(-c2nc(C(=O)N[C@H](C)c3cc(F)c(NS(C)(=O)=O)c(F)c3)co2)c1` (stereo in doubt) [Example 68, 2-(3-Methoxy-phenyl)-oxazole-4-carboxylic acid [1-(3,5-difluoro-4-methanesulfonylamino-phenyl)-ethyl]-amide], the IC50 at vanilloid receptor was 1700 nM. Same read-out and setting: with `C[C@@H](NC(=O)c1coc(-c2cccc(N(C)C)c2)n1)c1cc(F)c(NS(C)(=O)=O)c(F)c1` [Example 81, 2-(3-Dimethylamino-phenyl)-oxazole-4-carboxylic acid [1-(3,5-difluoro-4-methanesulfonylamino-phenyl)-ethyl]-amide] the figure was 1000 nM; with `C[C@@H](NC(=O)c1coc(Oc2cc(C(F)(F)F)ccc2Cl)n1)c1cc(F)c(NS(C)(=O)=O)c(F)c1` [Example 53, 2-(2-Chloro-5-trifluoromethyl-phenoxy)-oxazole-4-carboxylic acid [1-(3,5-difluoro-4-methanesulfonylamino-phenyl)-ethyl]-amide], 720 nM; with `CCC1CCc2c(Oc3nc(C(=O)N[C@H](C)c4cc(F)c(NS(C)(=O)=O)c(F)c4)co3)cccc21` (some centres unmarked) [Example 38, 2-(1-Ethyl-indan-4-yloxy)-oxazole-4-carboxylic acid [1-(3,5-difluoro-4-methanesulfonylamino-phenyl)-ethyl]-amide], 400 nM.

As for `C[C@@H](NC(=O)c1ccc(-c2ccc(F)c(C(F)(F)F)c2)o1)c1cc(F)c(NS(C)(=O)=O)c(F)c1` [Example 124, 5-(4-Fluoro-3-trifluoromethyl-phenyl)-furan-2-carboxylic acid [1-(3,5-difluoro-4-methanesulfonylamino-phenyl)-ethyl]-amide], the IC50 at vanilloid receptor was 42 nM. For the compound `C=Cc1cc(-c2ccc(C(=O)N[C@H](C)c3cc(F)c(NS(C)(=O)=O)c(F)c3)o2)cc(C(F)(F)F)c1` [Example 114, 5-(3-Trifluoromethyl-5-vinyl-phenyl)-furan-2-carboxylic acid [1-(3,5-difluoro-4-methanesulfonylamino-phenyl)-ethyl]-amide], at vanilloid receptor (DRG neuron, @3 μM, read-out: Antagonist Calcium Uptake Test, percent inhibition of capsaicin response), the inhibition at 3 µM came to 93%. For the compound `CS(=O)(=O)Nc1c(F)cc(CNC(=O)c2cc(-c3ccc(Br)cc3)oc2C(F)(F)F)cc1F` [Example 61, 5-(4-Bromo-phenyl)-2-trifluoromethyl-furan-3-carboxylic acid 3,5-difluoro-4-methanesulfonylamino-benzylamide], the IC50 on vanilloid receptor was determined as 2800 nM.

Take `C[C@@H](NC(=O)c1coc(Oc2cc(C(F)(F)F)ccc2C2CC2)n1)c1cc(F)c(NS(C)(=O)=O)c(F)c1` [Example 54, 2-(2-Cyclopropyl-5-trifluoromethyl-phenoxy)-oxazole-4-carboxylic acid [1-(3,5-difluoro-4-methanesulfonylamino-phenyl)-ethyl]-amide]: the IC50 at vanilloid receptor turned out to be 2900 nM. The same measure, in the same setting: with `C[C@@H](NC(=O)c1csc(-c2cc(C3CC3)cc(C3CC3)c2)n1)c1cc(F)c(NS(C)(=O)=O)c(F)c1` (stereo in doubt) [Example 107, 2-(3,5-Dicyclopropyl-phenyl)-thiazole-4-carboxylic acid [1-(3,5-difluoro-4-methanesulfonylamino-phenyl)-ethyl]-amide] the figure was 3000 nM.
